Residue numbers refer to the chain shown, from its start. “Also recorded” adds a separate entry of the source.
Columns and labels:
[1] = target: T1, TOP1 protein levels in HCT116 cells (Homo sapiens, UniProt P11387); test: TOP1 FACS assay, HCT116 cells dosed in vitro; format: cell-based; conditions: 24 h, read-out: IC50 for TOP1 protein levels
T1 construct: endogenous in cells; host or cells: HCT116 cells
T1 sequence (P11387 1-765): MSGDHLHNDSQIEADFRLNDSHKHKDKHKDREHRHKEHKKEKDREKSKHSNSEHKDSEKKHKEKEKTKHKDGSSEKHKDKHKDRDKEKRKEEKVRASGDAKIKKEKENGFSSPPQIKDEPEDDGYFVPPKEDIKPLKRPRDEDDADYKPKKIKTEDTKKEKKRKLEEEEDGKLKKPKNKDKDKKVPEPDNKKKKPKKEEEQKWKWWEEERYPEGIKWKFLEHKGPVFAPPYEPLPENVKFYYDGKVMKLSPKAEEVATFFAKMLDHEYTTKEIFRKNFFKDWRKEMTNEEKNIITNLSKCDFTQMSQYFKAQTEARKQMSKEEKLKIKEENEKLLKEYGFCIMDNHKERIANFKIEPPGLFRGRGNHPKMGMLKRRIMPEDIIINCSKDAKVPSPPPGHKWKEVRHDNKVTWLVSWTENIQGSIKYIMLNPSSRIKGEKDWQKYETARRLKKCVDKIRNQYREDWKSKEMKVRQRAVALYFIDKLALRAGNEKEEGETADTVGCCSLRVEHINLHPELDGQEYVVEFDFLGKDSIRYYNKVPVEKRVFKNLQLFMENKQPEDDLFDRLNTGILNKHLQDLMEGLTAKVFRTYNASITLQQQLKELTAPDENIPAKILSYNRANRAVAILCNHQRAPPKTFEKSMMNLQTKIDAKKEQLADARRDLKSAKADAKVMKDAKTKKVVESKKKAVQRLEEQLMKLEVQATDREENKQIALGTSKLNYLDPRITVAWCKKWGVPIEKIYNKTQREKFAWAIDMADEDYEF
Procedure: HCT116 cells were plated at 2.5 × 10^5/mL in 2 mL DMEM^+ in six-well plates. Cells were allowed to attach overnight in 37°C incubator before compound addition. […] Cells were scraped, washed with PBS and counted.
(§1) Tumor and bone marrow cells collected 24 h after dosing were permeabilized and fixed for 20 min on ice in the dark (Cytofix/Cytoperm Becton Dickinson; #554714), then washed 2× with Perm Wash. Cells were stained with rabbit anti-topoisomerase 1 antibody (Abcam; #109374) at 1 μg/ml on ice in the dark for 30 min and washed 2×, followed by staining with secondary antibody goat anti-rabbit IgG AF647 (Jackson ImmunoResearch; #111-605-144 diluted 1:1000) on ice in dark for 30 min. After a final 2× wash, the reduction of topoisomerase I (TOP1) protein levels was evaluated by collecting 10,000 (tumor) or 30,000 (BM) cells and determining the number of TOP1 positive stained cells on a BD Accuri™ flow cytometer.

[2] = target: T2, TOP1 protein levels in rat bone marrow cells (Rattus norvegicus, UniProt Q9WUL0); test: TOP1 FACS assay, rat bone marrow cells dosed ex vivo; format: cell-based; conditions: rat bone marrow cells in vitro, 24 h; read-out: IC50 for TOP1 protein levels
T2 construct: from tissue; host or cells: rat bone marrow cells, dosed ex vivo
T2 sequence (Q9WUL0 1-767): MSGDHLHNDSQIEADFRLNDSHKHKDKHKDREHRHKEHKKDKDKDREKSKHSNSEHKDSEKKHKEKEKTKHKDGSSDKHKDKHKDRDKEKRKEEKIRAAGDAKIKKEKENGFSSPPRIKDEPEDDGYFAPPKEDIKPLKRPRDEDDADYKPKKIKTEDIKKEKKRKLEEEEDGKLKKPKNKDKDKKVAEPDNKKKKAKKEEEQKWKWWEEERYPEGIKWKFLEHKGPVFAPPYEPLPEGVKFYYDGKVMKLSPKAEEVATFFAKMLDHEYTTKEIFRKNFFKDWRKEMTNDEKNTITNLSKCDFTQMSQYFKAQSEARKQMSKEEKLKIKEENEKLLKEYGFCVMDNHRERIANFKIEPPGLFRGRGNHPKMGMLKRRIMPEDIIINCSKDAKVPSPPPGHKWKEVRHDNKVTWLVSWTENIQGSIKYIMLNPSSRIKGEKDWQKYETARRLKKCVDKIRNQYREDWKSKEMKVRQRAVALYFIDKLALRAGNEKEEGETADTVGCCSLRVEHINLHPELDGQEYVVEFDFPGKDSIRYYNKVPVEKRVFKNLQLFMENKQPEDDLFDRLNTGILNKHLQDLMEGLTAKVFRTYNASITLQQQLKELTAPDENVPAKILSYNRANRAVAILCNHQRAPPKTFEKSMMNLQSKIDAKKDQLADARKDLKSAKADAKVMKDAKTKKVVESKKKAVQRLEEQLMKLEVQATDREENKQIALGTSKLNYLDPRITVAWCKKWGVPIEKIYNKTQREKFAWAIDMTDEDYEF
Procedure: Naïve Sprague-Dawley rat bone marrow cells were plated at 1 × 10^6/ml in 2 mL of RPMI^+ in six-well plates. Cells were allowed to incubate for 3 h at 37°C before compound addition. […] Cells were harvested, washed with PBS and counted.
as §1

[3] = target: T3, TOP1 protein levels in HCT116 tumor tissue (Homo sapiens, UniProt P11387); test: TOP1 FACS assay, HCT116 xenografted tumor of dosed mice; format: in vivo; conditions: 2.5 μmol/kg for 4 days, 24 h post last dose
T3 construct: Xenograft tumors were excised, weighed, and minced then were digested to single cells; from tissue; host or cells: HCT116 xenograft tumors from athymic nude mice
T3 sequence (P11387 1-765): T1 sequence (P11387 1-765)
Procedure: The vials capped and vortexed for 2 min.
Xenograft tumors were excised, weighed, and minced then were digested to single cells with an enzyme mix (Miltenyi; #130-095-929) for 40 min shaking at 37°C. Enzymes were inactivated by adding equal volume of DMEM^+. Digested cells were sequentially filtered through 70 μm then 40 μm filters and centrifuged at 700 rpm for 7 min at 4°C.
as §1

[4] = target: T4, TOP1 protein levels in bone marrow (Mus musculus, UniProt Q04750); test: TOP1 FACS assay, bone marrow of dosed mice; format: in vivo; conditions: 2.5 μmol/kg for 4 days, 24 h post last dose
T4 construct: Mouse bone marrow cells were isolated as described above; from tissue; host or cells: bone marrow of athymic nude mice bearing HCT116 xenografts
T4 sequence (Q04750 1-767): T2 sequence (Q9WUL0 1-767) with D77E, K90R, P141L, L167S, A197P, G239S, K665R
Procedure: Mouse bone marrow cells were isolated as described above.
as §1

[5] = Toxicity in rats (body weight, duodenum H&E histology); format: in vivo
Text: Duodenal tissue samples were fixed in 10% neutral buffered formalin, processed and embedded in paraffin. Tissue cross sections (5 μm) were mounted on positively charged microscope slides and stained with hematoxylin and eosin (H&E) (PolyScientific R&D, New York). Images were taken of tissue sections by standard light microscopy using an EVOS FL Cell Imaging System (Life Technologies) for histomorphological evaluation of intestinal inflammation.

[6] = tested on: HCT116 cells; test: In vitro cell killing, HCT116 cells; format: cell-based; conditions: Homo sapiens, HCT-116, data not shown
Procedure: (§2) Microplate-based short-term viability and synergy assays were performed as described previously ([18]).

[7] = tested on: MDA-MB-231 cells; test: Short-term viability assay, MDA-MB-231 cells; format: cell-based; conditions: Homo sapiens
Procedure: as §2

[8] = tested on: MDA-MB-231 cells; test: Synergy assay (Bliss) exatecan with talazoparib, MDA-MB-231 cells; format: cell-based, human; conditions: Bliss synergy analysis
[9] = tested on: γH2AX in HCT116 flank tumors; test: γH2AX immunofluorescence assay in HCT116 flank tumors; format: in vivo, mice; conditions: 1.15 mg/kg exatecan, P < 0.001
Procedure: Tumors were collected as detailed above, and FFPE tumor slides were created for IF staining. Antigen retrieval was performed using a heat-induced epitope retrieval (HIER) method, with TRIS-EDTA pH 9.0. Staining with primary antibody (mouse anti-human γH2AX; 1:500, Invitrogen) followed by secondary antibody (Goat anti-mouse Ax594; 1:1000, Invitrogen) was then performed. Images were obtained with a Keyence imager. Data analysis was performed in ImageJ and CellProfiler ([16]). Raincloud plots and heatmap were generated in R version 4.0.3 ([17]). Statistical analysis for γH2AX expression was performed using Kruskal–Wallis test, followed by Dunn's multiple comparison test (GraphPad Prism 9.1.0).

[10] = tested on: MKN45 xenografts; test: MKN45 xenograft in nude mice; conditions: MKN45 flank model, 2.3 mg/kg (equimolar to 20 mg/kg CBX-12)
[11] = Toxicity in mice (bone marrow cell counts, body weight, stomachs)
Procedure: Following tumor collection, mice were euthanized by cervical dislocation under anesthesia in accordance with the American Veterinary Medical Association (AVMA) Guidelines for the Euthanasia of Animals. Femurs were removed, and bone marrow was extruded into 50 mL conical tubes by flushing the bones with a 23-gauge needle fitted on a 5cc syringe containing PBS + 2% fetal bovine serum (FBS). Bone marrow was homogenized by gentle pipetting and filtered through 100 μm nylon mesh filters and cells were pelleted by centrifugation at 1200 rpm for 5 min at 4°C. Red blood cells were lysed with 3 mL of lysis buffer for 2 min at room temperature. PBS was added to a volume of 25 mL and cells were re-pelleted by centrifugation as described above. Cell pellets were suspended in 5 mL of PBS and cell count was assessed by trypan blue exclusion on a TC-20 cell counter (BioRad).

Structure (SMILES): CC[C@@]1(O)C(=O)OCc2c1cc1n(c2=O)Cc2c-1nc1cc(F)c(C)c3c1c2[C@@H](N)CC3 [exatecan]
- DC50 [1]: 24.8 nM
- DC50 [2]: 27.3 nM
- TOP1 protein levels in HCT116 flank tumor tissue [3]: decreased
- TOP1 protein levels in bone marrow [4]: decreased
- GI toxicity microscopically (H&E of duodenum) ([5]; rat, in vivo): significant GI toxicity
- body weight ([5]; rats (Figure 3C)): significant and unrecoverable body weight reductions
- IC50 [6]: 0.2 nM
- IC50 [7]: 0.21 nM
- interaction when combined with talazoparib [8]: robust synergy
- γH2AX expression after second cycle compared to first cycle [9]: significant higher γH2AX expression; also recorded: significantly higher γH2AX expression
- tolerability [10]: not tolerated and was lethal in all animals
- body weight ([11]; mice (Figure 3B)): significant and unrecoverable body weight reductions
- bone marrow cell counts ([11]; mice, equimolar doses): drastic bone marrow suppression

— paper PMC8210154, “Tumor-selective, antigen-independent delivery of a pH sensitive peptide-topoisomerase inhibitor conjugate suppresses tumor growth without systemic toxicity” (NAR Cancer, 2021)
